In the NIST ThermoML archive (doi:10.1021/je060271a):

Conditions: 283.15 K, Liquid, Vibrating tube method

CCCCCC(=O)OCC(COC(=O)CCCCC)(COC(=O)CCCCC)COC(=O)CCCCC [pentaerythritol tetrahexanoate]
Conditions | mass density [kg/m3]
1506.3 kPa | 1004.9
1520.4 kPa | 1005.1
1534.6 kPa | 1005.1
1551.6 kPa | 1005.1
1566 kPa | 1005.2
1580.3 kPa | 1005
1737.7 kPa | 1005.1
1752.5 kPa | 1005.1
1815.1 kPa | 1005.3
1862 kPa | 1005.2
1876.2 kPa | 1005.2
1889.8 kPa | 1005.2
1905.4 kPa | 1005.1
1918.9 kPa | 1005.2
1932.5 kPa | 1005.2
1949.3 kPa | 1005.2
1963.5 kPa | 1005.2
1978.6 kPa | 1005.2
1993.5 kPa | 1005.3
2005.3 kPa | 1005.3
2024.6 kPa | 1005.3
2039 kPa | 1005.3
2053.8 kPa | 1005.3
2068.7 kPa | 1005.3
2086.4 kPa | 1005.3
2102 kPa | 1005.4
2118 kPa | 1005.4
2136.7 kPa | 1005.4
2153 kPa | 1005.4
2165.7 kPa | 1005.4
2185.6 kPa | 1005.4
2205.4 kPa | 1005.4
2292.8 kPa | 1005.5
2303.8 kPa | 1005.5
2314.9 kPa | 1005.4
2328.2 kPa | 1005.4
2339.2 kPa | 1005.5
2350.1 kPa | 1005.5
2363.3 kPa | 1005.4
2374.2 kPa | 1005.4
2385.1 kPa | 1005.4
2398.1 kPa | 1005.5
2409.2 kPa | 1005.6
2420.2 kPa | 1005.6
2433.2 kPa | 1005.5
2443.9 kPa | 1005.6
2455 kPa | 1005.6
2468.4 kPa | 1005.6
2479.7 kPa | 1005.6
2490.8 kPa | 1005.5
2502 kPa | 1005.6
2515.9 kPa | 1005.6
2526.8 kPa | 1005.5
2552.3 kPa | 1005.6
2576.1 kPa | 1005.6
2587.9 kPa | 1005.7
2601.9 kPa | 1005.7
2613.9 kPa | 1005.7
2626 kPa | 1005.6
2640.3 kPa | 1005.7
2652.7 kPa | 1005.6
2664.9 kPa | 1005.8
2679.3 kPa | 1005.7
2692.1 kPa | 1005.6
2704.8 kPa | 1005.7
2717.4 kPa | 1005.8
2732.7 kPa | 1005.8
2745.7 kPa | 1005.8
2756.3 kPa | 1005.7
2768.9 kPa | 1005.7
2784.7 kPa | 1005.7
2800 kPa | 1005.8
2826.3 kPa | 1005.9
2841.9 kPa | 1005.7
2869.2 kPa | 1005.8
2883.2 kPa | 1005.8
2897.6 kPa | 1005.8
2911.3 kPa | 1005.7
2927.9 kPa | 1005.8
2942 kPa | 1005.9
2956 kPa | 1005.9
2973 kPa | 1005.9
2987.2 kPa | 1005.9
3001.4 kPa | 1005.9
3015.3 kPa | 1005.8
3032.1 kPa | 1005.8
3046.9 kPa | 1005.9
3061.4 kPa | 1005.9
3079.7 kPa | 1005.7
3094.3 kPa | 1006
3108.7 kPa | 1005.9
3123.8 kPa | 1006
3141.8 kPa | 1006
3157 kPa | 1006
3172.3 kPa | 1006
3187.9 kPa | 1005.9
3203.2 kPa | 1006
3221.5 kPa | 1005.9
3236.8 kPa | 1006.1
3337.6 kPa | 1006.1
3353.6 kPa | 1006.1
3404.7 kPa | 1006.2
3956.5 kPa | 1006.4
3974.5 kPa | 1006.6
3996.3 kPa | 1006.6
4014.4 kPa | 1006.5
4032.7 kPa | 1006.5
4054 kPa | 1006.5
4072 kPa | 1006.5
4090 kPa | 1006.6
4111.5 kPa | 1006.5
4129.7 kPa | 1006.7
4147.7 kPa | 1006.6
4165.7 kPa | 1006.5
4186.7 kPa | 1006.6
4204.2 kPa | 1006.6
4221.8 kPa | 1006.7
4239.5 kPa | 1006.7
4260.6 kPa | 1006.6
4277.8 kPa | 1006.6
4294.9 kPa | 1006.7
4314.8 kPa | 1006.6
4331.6 kPa | 1006.6
4348.2 kPa | 1006.7
4364.2 kPa | 1006.7
4383.5 kPa | 1006.7
4399.6 kPa | 1006.7
4414.7 kPa | 1006.7
4432.7 kPa | 1006.6
4448.3 kPa | 1006.8
4462.4 kPa | 1006.6
4476.2 kPa | 1006.7
4489.5 kPa | 1006.7
4504.9 kPa | 1006.8
4517.6 kPa | 1006.8
4530.4 kPa | 1006.7
4542.7 kPa | 1006.7
4556.9 kPa | 1006.8
4568.3 kPa | 1006.8
4579.5 kPa | 1006.7
4590.6 kPa | 1006.8
4604.1 kPa | 1006.8
4613.3 kPa | 1006.9
4626.1 kPa | 1006.8
4636.7 kPa | 1006.7
4649 kPa | 1006.8
4658.7 kPa | 1006.9
4668 kPa | 1006.9
4676.2 kPa | 1006.8
4685.2 kPa | 1006.8
4692.6 kPa | 1006.9
4700 kPa | 1006.9
4708.4 kPa | 1006.8
4714.4 kPa | 1006.8
4721.3 kPa | 1006.9
4726.5 kPa | 1006.8
4731.5 kPa | 1006.9
4736.6 kPa | 1006.9
4742.6 kPa | 1006.9
4748 kPa | 1006.9
4753 kPa | 1006.9
4759.1 kPa | 1006.9
4776 kPa | 1006.9
4786.1 kPa | 1007
4792.3 kPa | 1006.9
4802.7 kPa | 1006.8
4808.2 kPa | 1006.8
4814.3 kPa | 1006.9
4819.8 kPa | 1006.9
4825.4 kPa | 1007
4830.4 kPa | 1007
4835.6 kPa | 1007
4841.6 kPa | 1006.9
4847.2 kPa | 1007
4852.3 kPa | 1006.9
4858.9 kPa | 1007
4864.1 kPa | 1007
4869.3 kPa | 1007
4874.5 kPa | 1007
4881.1 kPa | 1007
4886.6 kPa | 1006.9
4892 kPa | 1006.9
4898.2 kPa | 1006.9
4903.6 kPa | 1007
4909.8 kPa | 1007
4915.2 kPa | 1007
4920.5 kPa | 1006.9
4926.4 kPa | 1007.1
4932 kPa | 1006.8
4938.5 kPa | 1006.9
4943.9 kPa | 1007
4949.3 kPa | 1007
4955.8 kPa | 1007
4961.4 kPa | 1007
4966.9 kPa | 1007
4972.8 kPa | 1007
4978 kPa | 1007
4984.9 kPa | 1007
4990.4 kPa | 1007.2
4996.2 kPa | 1007
5002.7 kPa | 1007.2
5008.1 kPa | 1007
5013.8 kPa | 1007.1
5020.4 kPa | 1007
5026.1 kPa | 1007
5031.5 kPa | 1007.1
5037.2 kPa | 1007
5044.1 kPa | 1007.2
5049.5 kPa | 1007.1
5055.5 kPa | 1007
5060.9 kPa | 1007.1
5067.8 kPa | 1007
5073.5 kPa | 1007.2
5079.2 kPa | 1007.1
5085.4 kPa | 1007.1
5091.5 kPa | 1007.1
5098.2 kPa | 1007
5103.9 kPa | 1007.1
5109.8 kPa | 1007
5115.5 kPa | 1007.1
5122.3 kPa | 1007
5128.3 kPa | 1007.1
5133.9 kPa | 1007.2
5138.7 kPa | 1007.1
5147 kPa | 1007.2
5152.5 kPa | 1007
5158.3 kPa | 1007.2
5164.7 kPa | 1007.2
5169.6 kPa | 1007.1
5176.9 kPa | 1007
5183.3 kPa | 1007.2
5189 kPa | 1007.1
5194.8 kPa | 1007.2
5201.6 kPa | 1007.1
5207.6 kPa | 1007
5212.7 kPa | 1007.2
5218.4 kPa | 1007.2
5227 kPa | 1007.3
5232.6 kPa | 1007.1
5237.2 kPa | 1007.1
5244.5 kPa | 1007.2
5250.5 kPa | 1007.1
5256.8 kPa | 1007.2
5263.7 kPa | 1007.2
5270.8 kPa | 1007.3
5276.8 kPa | 1007.2
5282.7 kPa | 1007.3
5290.2 kPa | 1007.4
5296 kPa | 1007.1
5302.1 kPa | 1007.3
5453.3 kPa | 1007.3
5459.7 kPa | 1007.3
5467.3 kPa | 1007.4
5473.7 kPa | 1007.4
5479.9 kPa | 1007.2
5486.3 kPa | 1007.3
5494.3 kPa | 1007.3
5501 kPa | 1007.3
5507.2 kPa | 1007.4
5514 kPa | 1007.4
5528.5 kPa | 1007.4
5534.4 kPa | 1007.4
5540.6 kPa | 1007.4
5548.4 kPa | 1007.4
5555 kPa | 1007.4
5561.9 kPa | 1007.3
5569.7 kPa | 1007.4
5575.9 kPa | 1007.4
5582.8 kPa | 1007.5
5589.4 kPa | 1007.4
5597.4 kPa | 1007.3
5604.1 kPa | 1007.5
5610.3 kPa | 1007.4
5618.3 kPa | 1007.4
5625 kPa | 1007.4
5631.6 kPa | 1007.4
5639.6 kPa | 1007.4
5646.1 kPa | 1007.5
5652.9 kPa | 1007.4
5661 kPa | 1007.5
5667.7 kPa | 1007.5
5674.8 kPa | 1007.3
5681.2 kPa | 1007.4
5687.9 kPa | 1007.4
5696.2 kPa | 1007.5
5703 kPa | 1007.4
5709.5 kPa | 1007.5
5716.6 kPa | 1007.5
5724.4 kPa | 1007.5
